Data taken from PubChem BioAssay (NCI).
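GI50: concentration for 50% inhibition of growth. TGI denotes the concentration required for complete inhibition of growth.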

What was measured:
Assay in all cases: inhibition of tumour cell growth, NCI panel, 384-well format
[1] = tested on: SW-620 colon
[2] = tested on: IGROV1 ovarian
[3] = tested on: UACC-257 melanoma
[4] = tested on: SNB-19 CNS
[5] = tested on: KM12 colon
[6] = tested on: MDA-MB-435 melanoma
[7] = tested on: EKVX NSCLC
[8] = tested on: 786-0 renal
[9] = tested on: U251 glioblastoma
[10] = tested on: SK-MEL-28 melanoma
[11] = tested on: NCI/ADR-RES ovarian
[12] = tested on: DU-145 prostate
[13] = tested on: OVCAR-8 ovarian
[14] = tested on: T-47D breast
[15] = tested on: NCI-H23 lung
[16] = tested on: HOP-92 NSCLC
[17] = tested on: MOLT-4 leukemia
[18] = tested on: SNB-75 CNS
[19] = tested on: MCF7 breast
[20] = tested on: CAKI-1 renal
[21] = tested on: K-562 leukemia
[22] = tested on: COLO 205 colon
[23] = tested on: RPMI-8226 leukemia
[24] = tested on: BT-549 breast
[25] = tested on: LOX IMVI melanoma
[26] = tested on: SK-OV-3 ovarian
[27] = tested on: SF-268 CNS
[28] = tested on: SF-539 CNS
[29] = tested on: HT29 colon
[30] = tested on: UACC-62 melanoma
[31] = tested on: ACHN renal
[32] = tested on: SK-MEL-5 melanoma
[33] = tested on: OVCAR-3 ovarian
[34] = tested on: NCI-H460 NSCLC
[35] = tested on: NCI-H522 lung
[36] = tested on: PC-3 prostate
[37] = tested on: HCT-15 colon
[38] = tested on: OVCAR-5 ovarian
[39] = tested on: HCT-116 colon
[40] = tested on: NCI-H226 lung
[41] = tested on: UO-31 renal
[42] = tested on: MDA-MB-231 breast
[43] = tested on: A549 NSCLC
[44] = tested on: SR leukemia
[45] = tested on: RXF 393 renal
[46] = tested on: NCI-H322M lung
[47] = tested on: M14 melanoma

Question: With `C=CC(=O)Nc1cc(Nc2nccc(-c3cn(C)c4ccccc34)n2)c(OC)cc1N(C)CCN(C)C` as the molecule, how does the GI50 [1] read?
Answer: 1760 nM

Question: What about the TGI [1] of the same molecule?
Answer: 3180 nM

Question: What about the GI50 [2] of the same molecule?
Answer: 440 nM

Question: And the TGI [2]?
Answer: 1880 nM

Question: What about the GI50 [3] of the same molecule?
Answer: 840 nM

Question: What about the TGI [3] of the same molecule?
Answer: 1580 nM

Question: What about the GI50 [4] of the same molecule?
Answer: 3020 nM

Question: What about the TGI [4] of the same molecule?
Answer: 8810 nM

Question: What about the GI50 [5] of the same molecule?
Answer: 2560 nM

Question: What about the TGI [5] of the same molecule?
Answer: 5720 nM

Question: And the GI50 [6]?
Answer: 2000 nM

Question: What about the TGI [6] of the same molecule?
Answer: 3550 nM

Question: What about the GI50 [7] of the same molecule?
Answer: 617 nM

Question: And the TGI [7]?
Answer: 2170 nM

Question: What about the GI50 [8] of the same molecule?
Answer: 1310 nM

Question: And the TGI [8]?
Answer: 2600 nM

Question: And the GI50 [9]?
Answer: 1800 nM

Question: What about the TGI [9] of the same molecule?
Answer: 3250 nM

Question: What about the GI50 [10] of the same molecule?
Answer: 1660 nM

Question: And the TGI [10]?
Answer: 3040 nM

Question: And the GI50 [11]?
Answer: 1130 nM

Question: What about the TGI [11] of the same molecule?
Answer: 2370 nM

Question: What about the GI50 [12] of the same molecule?
Answer: 1140 nM

Question: And the TGI [12]?
Answer: 2610 nM

Question: And the GI50 [13]?
Answer: 1420 nM

Question: And the TGI [13]?
Answer: 2760 nM

Question: And the GI50 [14]?
Answer: 957 nM

Question: What about the TGI [14] of the same molecule?
Answer: 2380 nM

Question: And the GI50 [15]?
Answer: 1870 nM

Question: What about the TGI [15] of the same molecule?
Answer: 3670 nM

Question: What about the GI50 [16] of the same molecule?
Answer: 1150 nM

Question: What about the TGI [16] of the same molecule?
Answer: 2380 nM

Question: And the GI50 [17]?
Answer: 921 nM

Question: And the TGI [17]?
Answer: 2150 nM

Question: And the GI50 [18]?
Answer: 2710 nM

Question: And the TGI [18]?
Answer: 6410 nM

Question: What about the GI50 [19] of the same molecule?
Answer: 1180 nM

Question: What about the TGI [19] of the same molecule?
Answer: 2580 nM

Question: And the GI50 [20]?
Answer: 703 nM

Question: What about the TGI [20] of the same molecule?
Answer: 2080 nM

Question: And the GI50 [21]?
Answer: 1160 nM

Question: And the TGI [21]?
Answer: 2390 nM

Question: What about the GI50 [22] of the same molecule?
Answer: 1590 nM

Question: And the TGI [22]?
Answer: 2950 nM

Question: And the GI50 [23]?
Answer: 980 nM

Question: What about the TGI [23] of the same molecule?
Answer: 2230 nM

Question: And the GI50 [24]?
Answer: 1330 nM

Question: What about the TGI [24] of the same molecule?
Answer: 2620 nM

Question: And the GI50 [25]?
Answer: 2060 nM

Question: What about the TGI [25] of the same molecule?
Answer: 3500 nM

Question: And the GI50 [26]?
Answer: 1740 nM

Question: What about the TGI [26] of the same molecule?
Answer: 5730 nM

Question: What about the GI50 [27] of the same molecule?
Answer: 1490 nM

Question: And the TGI [27]?
Answer: 3230 nM

Question: And the GI50 [28]?
Answer: 1440 nM

Question: What about the TGI [28] of the same molecule?
Answer: 2760 nM

Question: What about the GI50 [29] of the same molecule?
Answer: 1610 nM

Question: And the TGI [29]?
Answer: 2990 nM

Question: What about the GI50 [30] of the same molecule?
Answer: 1640 nM

Question: And the TGI [30]?
Answer: 3020 nM

Question: What about the GI50 [31] of the same molecule?
Answer: 453 nM

Question: And the TGI [31]?
Answer: 2210 nM

Question: What about the GI50 [32] of the same molecule?
Answer: 1220 nM

Question: And the TGI [32]?
Answer: 2230 nM

Question: And the GI50 [33]?
Answer: 1130 nM

Question: And the TGI [33]?
Answer: 2460 nM

Question: What about the GI50 [34] of the same molecule?
Answer: 1760 nM

Question: What about the TGI [34] of the same molecule?
Answer: 3190 nM

Question: What about the GI50 [35] of the same molecule?
Answer: 49.5 nM

Question: What about the TGI [35] of the same molecule?
Answer: 843 nM

Question: And the GI50 [36]?
Answer: 1610 nM

Question: And the TGI [36]?
Answer: 3090 nM

Question: And the GI50 [37]?
Answer: 1250 nM

Question: And the TGI [37]?
Answer: 2600 nM

Question: And the GI50 [38]?
Answer: 1620 nM

Question: What about the TGI [38] of the same molecule?
Answer: 3930 nM

Question: What about the GI50 [39] of the same molecule?
Answer: 1610 nM

Question: And the TGI [39]?
Answer: 3020 nM

Question: What about the GI50 [40] of the same molecule?
Answer: 863 nM

Question: And the TGI [40]?
Answer: 2200 nM

Question: What about the GI50 [41] of the same molecule?
Answer: 746 nM

Question: What about the TGI [41] of the same molecule?
Answer: 2120 nM

Question: And the GI50 [42]?
Answer: 1790 nM

Question: What about the TGI [42] of the same molecule?
Answer: 3210 nM

Question: What about the GI50 [43] of the same molecule?
Answer: 1340 nM

Question: And the TGI [43]?
Answer: 3590 nM

Question: And the GI50 [44]?
Answer: 602 nM

Question: And the TGI [44]?
Answer: 1290 nM

Question: What about the GI50 [45] of the same molecule?
Answer: 806 nM

Question: What about the TGI [45] of the same molecule?
Answer: 2150 nM

Question: What about the GI50 [46] of the same molecule?
Answer: 179 nM

Question: What about the TGI [46] of the same molecule?
Answer: 1120 nM

Question: And the GI50 [47]?
Answer: 1960 nM

Question: And the TGI [47]?
Answer: 3390 nM
